Results reported in ChEMBL document CHEMBL2385071, “Synthesis and biological investigation of coumarin piperazine (piperidine) derivatives as potential multireceptor atypical antipsychotics” (J Med Chem, 2013).

Experiments:
[1] = target: T1, 5-hydroxytryptamine receptor 1A (Rattus norvegicus, UniProt P19327); assay: biochemical
T1 sequence (P19327 whole entry): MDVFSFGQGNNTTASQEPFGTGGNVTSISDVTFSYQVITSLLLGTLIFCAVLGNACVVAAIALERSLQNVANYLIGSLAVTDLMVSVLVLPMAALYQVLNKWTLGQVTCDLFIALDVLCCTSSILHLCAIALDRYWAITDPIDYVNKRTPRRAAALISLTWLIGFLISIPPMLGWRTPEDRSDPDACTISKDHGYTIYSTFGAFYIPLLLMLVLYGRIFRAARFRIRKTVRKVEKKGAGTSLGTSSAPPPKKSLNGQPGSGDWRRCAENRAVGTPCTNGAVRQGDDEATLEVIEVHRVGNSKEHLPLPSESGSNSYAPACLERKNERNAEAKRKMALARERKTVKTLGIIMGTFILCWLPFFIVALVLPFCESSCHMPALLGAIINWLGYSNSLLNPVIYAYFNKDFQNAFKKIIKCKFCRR
Description: Displacement of [3H]8-OH-DPAT from 5HT1A receptor in rat cerebral cortex after 30 mins by liquid scintillation counting analysis

[2] = target: Histamine H1 receptor (Cavia porcellus, UniProt P31389); assay: Displacement of [3H]mepyramine from histamine H1 receptor in guinea pig cerebellum after 60 mins by liquid scintillation counting analysis
Chain of Histamine H1 receptor (P31389 whole entry): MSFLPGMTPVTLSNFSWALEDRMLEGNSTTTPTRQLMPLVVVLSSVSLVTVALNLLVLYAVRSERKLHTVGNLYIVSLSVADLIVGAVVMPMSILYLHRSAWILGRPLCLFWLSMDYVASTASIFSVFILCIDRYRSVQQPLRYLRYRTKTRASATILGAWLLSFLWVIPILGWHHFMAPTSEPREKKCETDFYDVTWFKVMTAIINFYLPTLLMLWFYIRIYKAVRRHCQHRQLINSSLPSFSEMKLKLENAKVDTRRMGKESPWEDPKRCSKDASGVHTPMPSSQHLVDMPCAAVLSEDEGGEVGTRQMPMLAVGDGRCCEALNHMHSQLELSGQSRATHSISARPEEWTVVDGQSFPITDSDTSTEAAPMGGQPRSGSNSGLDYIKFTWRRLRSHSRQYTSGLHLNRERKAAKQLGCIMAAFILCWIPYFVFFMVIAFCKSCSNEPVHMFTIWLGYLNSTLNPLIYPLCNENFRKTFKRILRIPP

[3] = target: T2, 5-hydroxytryptamine receptor 2C (Rattus norvegicus, UniProt P08909); assay: biochemical
T2 sequence (P08909 whole entry): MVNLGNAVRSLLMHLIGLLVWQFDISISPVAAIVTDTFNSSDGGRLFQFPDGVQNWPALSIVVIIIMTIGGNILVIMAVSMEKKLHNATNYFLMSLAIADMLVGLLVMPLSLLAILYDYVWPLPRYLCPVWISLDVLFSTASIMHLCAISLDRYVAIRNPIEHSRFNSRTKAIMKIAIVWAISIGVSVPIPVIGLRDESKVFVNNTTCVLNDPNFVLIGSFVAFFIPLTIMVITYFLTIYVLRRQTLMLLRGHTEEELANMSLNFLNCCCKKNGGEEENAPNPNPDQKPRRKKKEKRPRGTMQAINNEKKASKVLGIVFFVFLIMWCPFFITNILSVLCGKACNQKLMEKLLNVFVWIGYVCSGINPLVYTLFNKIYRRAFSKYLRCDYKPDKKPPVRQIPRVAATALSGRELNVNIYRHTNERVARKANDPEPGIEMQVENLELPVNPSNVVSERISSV
Description: Displacement of [3H]mesulergine from 5HT2C receptor in rat cerebral cortex after 15 mins by liquid scintillation counting analysis

[4] = target: D(2) dopamine receptor (Rattus norvegicus, UniProt P61169)
Chain of D(2) dopamine receptor (P61169 whole entry): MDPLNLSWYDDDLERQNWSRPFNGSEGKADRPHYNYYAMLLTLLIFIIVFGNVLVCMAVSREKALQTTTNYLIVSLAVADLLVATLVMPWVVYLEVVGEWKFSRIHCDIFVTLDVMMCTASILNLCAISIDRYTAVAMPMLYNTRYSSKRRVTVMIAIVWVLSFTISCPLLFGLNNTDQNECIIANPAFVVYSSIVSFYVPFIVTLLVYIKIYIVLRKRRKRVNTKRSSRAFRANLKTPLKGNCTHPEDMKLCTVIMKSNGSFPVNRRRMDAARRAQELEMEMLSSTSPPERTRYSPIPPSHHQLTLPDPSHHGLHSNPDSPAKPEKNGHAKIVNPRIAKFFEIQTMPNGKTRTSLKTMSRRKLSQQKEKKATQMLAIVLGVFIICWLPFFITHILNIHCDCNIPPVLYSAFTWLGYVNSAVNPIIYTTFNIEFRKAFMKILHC

[5] = target: T3, Adrenergic receptor alpha-1 (Rattus norvegicus, UniProt P15823+P23944+P43140)
T3 sequence (P15823 whole entry): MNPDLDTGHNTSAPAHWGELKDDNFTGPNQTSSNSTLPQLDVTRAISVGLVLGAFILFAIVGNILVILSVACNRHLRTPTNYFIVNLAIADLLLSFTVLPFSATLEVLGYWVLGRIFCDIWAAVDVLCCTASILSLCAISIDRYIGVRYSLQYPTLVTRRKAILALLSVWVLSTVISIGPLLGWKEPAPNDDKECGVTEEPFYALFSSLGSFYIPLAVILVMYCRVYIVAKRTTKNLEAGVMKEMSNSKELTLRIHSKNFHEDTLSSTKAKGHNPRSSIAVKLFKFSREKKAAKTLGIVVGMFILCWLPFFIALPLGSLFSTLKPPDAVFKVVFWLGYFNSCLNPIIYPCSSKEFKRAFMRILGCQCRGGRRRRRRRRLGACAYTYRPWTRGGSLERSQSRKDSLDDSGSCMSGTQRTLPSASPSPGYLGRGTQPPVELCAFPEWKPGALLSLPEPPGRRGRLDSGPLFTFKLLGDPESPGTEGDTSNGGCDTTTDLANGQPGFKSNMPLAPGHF
T3 sequence (P23944 whole entry): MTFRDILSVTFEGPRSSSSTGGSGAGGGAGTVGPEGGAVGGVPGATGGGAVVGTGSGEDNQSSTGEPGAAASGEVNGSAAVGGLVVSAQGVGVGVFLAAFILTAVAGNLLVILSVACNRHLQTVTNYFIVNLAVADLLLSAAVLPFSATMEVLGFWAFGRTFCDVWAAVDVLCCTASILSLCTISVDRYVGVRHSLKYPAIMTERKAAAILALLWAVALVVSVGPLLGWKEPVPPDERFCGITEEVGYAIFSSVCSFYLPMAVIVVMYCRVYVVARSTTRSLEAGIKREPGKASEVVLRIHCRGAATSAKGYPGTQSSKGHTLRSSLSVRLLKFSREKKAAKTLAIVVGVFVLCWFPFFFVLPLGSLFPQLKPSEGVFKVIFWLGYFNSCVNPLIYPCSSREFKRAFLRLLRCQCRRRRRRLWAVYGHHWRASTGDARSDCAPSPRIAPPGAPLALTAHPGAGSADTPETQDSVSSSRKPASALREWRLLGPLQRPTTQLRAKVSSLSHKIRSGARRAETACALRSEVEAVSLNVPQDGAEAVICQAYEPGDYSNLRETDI
T3 sequence (P43140 whole entry): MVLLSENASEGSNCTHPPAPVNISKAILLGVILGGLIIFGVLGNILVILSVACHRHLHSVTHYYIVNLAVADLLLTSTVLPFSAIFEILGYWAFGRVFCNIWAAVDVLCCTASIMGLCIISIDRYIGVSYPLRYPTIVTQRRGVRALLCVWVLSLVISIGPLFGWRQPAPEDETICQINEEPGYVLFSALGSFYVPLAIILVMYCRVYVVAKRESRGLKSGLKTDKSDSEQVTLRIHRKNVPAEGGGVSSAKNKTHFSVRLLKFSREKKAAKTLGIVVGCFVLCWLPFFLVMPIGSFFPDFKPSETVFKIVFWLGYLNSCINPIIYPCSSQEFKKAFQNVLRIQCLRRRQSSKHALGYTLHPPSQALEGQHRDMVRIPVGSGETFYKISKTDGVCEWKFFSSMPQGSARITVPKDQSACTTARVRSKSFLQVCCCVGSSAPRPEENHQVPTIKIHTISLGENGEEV
Description: Displacement of [3H]prazosin from alpha-1 adrenergic receptor in rat cerebral cortex after 60 mins by liquid scintillation counting analysis

SMILES	Ki [1] [nM]	Ki [2] [nM]	Ki [3] [nM]	Ki [4] [nM]	Ki [5] [nM]
O=c1cc(-c2ccccc2)c2ccc(OCCCCN3CCC(c4noc5cc(F)ccc45)CC3)cc2o1	12.7	38.1	256	14.8	> 10000
Cc1cc(=O)oc2c(Cl)c(OCCCCN3CCC(c4noc5cc(F)ccc45)CC3)ccc12	3.3	1130	1700	2.6	2569.2
Cc1cc(=O)oc2cc(OCCCCN3CCC(c4noc5cc(F)ccc45)CC3)ccc12	3.5	19.6	11.9	4.9	15.8
Cc1cc(=O)oc2c(C)c(OCCCCN3CCC(c4noc5cc(F)ccc45)CC3)ccc12	12.9	21.3	68.9	5.3	121.2
COc1ccccc1N1CCN(CCCCOc2ccc3c(C)cc(=O)oc3c2)CC1	0.012	> 10000	1000	1.4	6.1
Cc1c(C)c2ccc(OCCCCN3CCC(c4noc5cc(F)ccc45)CC3)cc2oc1=O	16.7	550	389	4	139.2
